Assay [1] concerns Staphylococcus aureus ATCC 25923. Conditions: values marked *: performed by the group in the previous study; ref [29]; cited from earlier work. The source says: Table 3 Antibiofilm activity of lipopeptides. | column: MBEC (μg/mL) / S. aureus
The test system of assay [2] is E. coli ML-35 (ATCC 43827). Format: cell-based, Escherichia coli.
The test system of assay [3] is Staphylococcus aureus ATCC 25923. In kind it is cell-based. The method, boiled down: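 MBEC by resazurin: lowest concentration giving ≤10 ± 0.5% reduction relative to positive (100%) and negative (0%) controls, A570/A600 read 1 h after dye addition. Preformed 24 h biofilms, 24 h compound exposure at 37 °C, 0.5–256 μg/mL; triplicate.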
For assay [4] the test system is unchanged. Format: cell-based. The method, boiled down: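 Broth microdilution per CLSI: E. coli at 5 × 10^5 CFU/mL in Mueller–Hinton broth, yeasts at 2 × 10^3 CFU/mL in RPMI-1640 with 2% D-glucose, exposed to lipopeptides at 0.5–256 μg/mL. Incubation at 37 °C, 18 h for bacteria and 24 h for yeasts. MIC read visually as lowest concentration inhibiting noticeable growth; triplicate.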
This is another data set of the same source.

The test system of assay [5] is Candida albicans ATCC 10231. Briefly: Transmission electron microscopy (TEM). Conditions: 2 × MIC, 5.0 × 10^6 CFU/mL, 1 h at room temperature. In kind it is cell-based. How it is done:
TEM was used to examine ultrastructural changes in the Candida albicans ATCC 10231 cells treated with selected lipopeptides (L2, C2, L4, C4) and melittin (positive control). Fungal cells (Candida albicans ATCC 10231) were incubated in RMPI-1640 overnight. The cells were centrifuged (3500 rpm, 7 min) and resuspended in fresh RMPI-1640 medium to obtain dense cell suspension (5.0 × 10^6 CFU/mL). The high cell-density culture was prepared to facilitate TEM observations. Peptides’ concentrations were 2 × MIC. Samples were incubated for 1 h at room temperature. Importantly, MIC of selected peptides (L2, C2, L4, C4, and melittin) were also determined with dense inoculum of yeasts (5.0 × 10^6 CFU/mL). After the treatment, the fungal cells were centrifuged (3500× rpm, 10 min) and washed twice with PBS. Fungal cells were fixed with 2.5% glutaraldehyde buffered at pH 6.5 with 0.1 M sodium cacodylate (Polysciences, Warrington, PA, USA) for 6 h at room temperature. Postfixation was performed with a 1% osmium tetroxide (Polysciences, Warrington, PA, USA) solution for 2 h at 4 °C. The cells were then centrifuged and resuspended in 0.1 M cacodylate buffer (pH 6.5). After re-centrifugation, cells were dehydrated with ethanol. Yeasts were embedded in Epon 812 resin (Sigma-Aldrich) at room temperature. An ultramicrotome Leica UC7 was used to prepare ultrathin sections (55 nm). […]

Assay [6] has as its system keratinocytes. Particulars: reported in the literature; ref [13]; cited from earlier work. The source says:
However, an identical hemolysis pattern is consistent only with peptides L4, C4, L7, and C7. A common feature of these compounds is the presence of arginine residue in the second and third position, which differentiates them from the rest of compounds used in this study. Overall effect of disulfide cyclization on hemolysis seems to be dependent on arginine(s) position. In general, disulfide cyclization of lipopeptides results in the reduced cytotoxicity a ...

The source of these data is article PMC7582905, “Effect of Disulfide Cyclization of Ultrashort Cationic Lipopeptides on Antimicrobial Activity and Cytotoxicity” (International Journal of Molecular Sciences, 2020).

Values after ≈ are worked out from the molar mass of the structure shown. Read-outs that look alike come from different tables or passages of the source. Where a SMILES comes first, the peptide text is derived from it. Bridges are numbered along the chain shown (N, C = ends). The star is where a group is joined. Palmitoyl = CCCCCCCCCCCCCCCC(=O)*

Take `CCCCCCCCCCCCCCCC(=O)N[C@H]1CSSC[C@@H](C(N)=O)NC(=O)[C@H](CCCCN)NC(=O)[C@H](CCCCN)NC(=O)[C@H](CCCCN)NC1=O` [C1, C16-CKKKC-NH2] (Palmitoyl-CKKKC-NH2; disulfide 1-5): the “MBEC S. aureus” value in assay [1] is given as 64 * μg/mL.

Consider `CCCCCCCCCCCCCCCC(=O)N[C@H]1CSSC[C@@H](C(N)=O)NC(=O)[C@H](CCCCN)NC(=O)[C@H](CCCCN)NC(=O)[C@H](CCCCN)NC(=O)[C@H](CCCCN)NC1=O` [C2, C16-CKKKKC-NH2] (Palmitoyl-CKKKKC-NH2; disulfide 1-6), for which the “MIC against E. coli ML-35” value in assay [2] was 8 µg/mL (≈ 8.23 µM). Moreover, in assay [3] (24 h biofilm on polystyrene plates, 24 h exposure at 37 °C, resazurin, triplicate), the “MBEC S. aureus” value was 64 µg/mL. For the same compound, the “MIC S. aureus” value in assay [4] (broth microdilution (CLSI), MHB, 5 × 10^5 CFU/mL, 37 °C, 18 h, visual, triplicate) came to 32 µg/mL (≈ 32.9 µM).

On to `CCCCCCCCCCCCCCCC(=O)N[C@H]1CSSC[C@@H](C(N)=O)NC(=O)[C@H](CCCCN)NC(=O)[C@H](CCCCN)NC(=O)[C@H](CCCCN)NC(=O)[C@H](CCCNC(=N)N)NC1=O` [C3, C16-CRKKKC-NH2] (Palmitoyl-CRKKKC-NH2; disulfide 1-6), for which the “MBEC S. aureus” value in assay [1] is recorded as 128 * μg/mL.

As for `CCCCCCCCCCCCCCCC(=O)N[C@H]1CSSC[C@@H](C(N)=O)NC(=O)[C@H](CCCCN)NC(=O)[C@H](CCCCN)NC(=O)[C@H](CCCNC(=N)N)NC(=O)[C@H](CCCCN)NC1=O` [C4, C16-CKRKKC-NH2] (Palmitoyl-CKRKKC-NH2; disulfide 1-6), the “ultrastructural changes in TEM micrographs” value in assay [5] is “numerous vesicles are visible inside and outside the cell”. Further, the “MIC against E. coli ML-35” value in assay [2] came to 8 µg/mL (≈ 8 µM). In addition, the “MBEC S. aureus” value in assay [3] (ATCC 25923, 24 h) was found to be 64 µg/mL. Also, the “MIC S. aureus” value in assay [4] (ATCC 25923, 18 h) was 16 µg/mL (≈ 16 µM).

Regarding `CCCCCCCCCCCCCCCC(=O)N[C@H]1CSSC[C@@H](C(N)=O)NC(=O)[C@H](CCCCN)NC(=O)[C@H](CCCNC(=N)N)NC(=O)[C@H](CCCCN)NC(=O)[C@H](CCCCN)NC1=O` [C5, C16-CKKRKC-NH2] (Palmitoyl-CKKRKC-NH2; disulfide 1-6), the “MBEC S. aureus” value in assay [1] was 128 * μg/mL.

Turning to `CCCCCCCCCCCCCCCC(=O)N[C@H]1CSSC[C@@H](C(N)=O)NC(=O)[C@H](CCCNC(=N)N)NC(=O)[C@H](CCCCN)NC(=O)[C@H](CCCCN)NC(=O)[C@H](CCCCN)NC1=O` [C6, C16-CKKKRC-NH2] (Palmitoyl-CKKKRC-NH2; disulfide 1-6), in assay [1], the “MBEC S. aureus” value is reported as 64 * μg/mL.

For `CCCCCCCCCCCCCCCC(=O)N[C@H]1CSSC[C@@H](C(N)=O)NC(=O)[C@H](CCCCN)NC(=O)[C@H](CCCCN)NC(=O)[C@H](CCCNC(=N)N)NC(=O)[C@H](CCCNC(=N)N)NC1=O` [C7, C16-CRRKKC-NH2] (Palmitoyl-CRRKKC-NH2; disulfide 1-6), the “MBEC S. aureus” value in assay [3] (ATCC 25923, 24 h) turned out to be 128 µg/mL. In assay [4] (ATCC 25923, 18 h), the “MIC S. aureus” value was 8 µg/mL (≈ 7.78 µM).

Turning to `CCCCCCCCCCCCCCCC(=O)N[C@@H](CCCCN)C(=O)N[C@@H](CCCCN)C(=O)N[C@@H](CCCCN)C(N)=O` [L1, C16-KKK-NH2], the toxicity against keratinocytes in assay [6] is 3.2 µg/mL. The “MBEC S. aureus” value in assay [1] is recorded as 64 * μg/mL.

As for `CCCCCCCCCCCCCCCC(=O)N[C@@H](CCCCN)C(=O)N[C@@H](CCCCN)C(=O)N[C@@H](CCCCN)C(=O)N[C@@H](CCCCN)C(N)=O` [L2, C16-KKKK-NH2] (Palmitoyl-KKKK-NH2), in assay [2], the “MIC against E. coli ML-35” value is 4 µg/mL (≈ 5.21 µM). In addition, in assay [3] (ATCC 25923, 24 h), the “MBEC S. aureus” value worked out at 64 µg/mL. For the same compound, in assay [4] (ATCC 25923, 18 h), the “MIC S. aureus” value turned out to be 16 µg/mL (≈ 20.8 µM).

As for `CCCCCCCCCCCCCCCC(=O)N[C@@H](CCCNC(=N)N)C(=O)N[C@@H](CCCCN)C(=O)N[C@@H](CCCCN)C(=O)N[C@@H](CCCCN)C(N)=O` [L3, C16-RKKK-NH2] (Palmitoyl-RKKK-NH2), the “MBEC S. aureus” value in assay [1] is 64 * μg/mL.

For the compound `CCCCCCCCCCCCCCCC(=O)N[C@@H](CCCCN)C(=O)N[C@@H](CCCNC(=N)N)C(=O)N[C@@H](CCCCN)C(=O)N[C@@H](CCCCN)C(N)=O` [L4, C16-KRKK-NH2] (Palmitoyl-KRKK-NH2), the “MIC against E. coli ML-35” value in assay [2] amounted to 4 µg/mL (≈ 5.02 µM). Moreover, the “MBEC S. aureus” value in assay [3] (ATCC 25923, 24 h) was found to be 64 µg/mL. Moreover, the “MIC S. aureus” value in assay [4] (ATCC 25923, 18 h) is 8 µg/mL (≈ 10 µM).

Take `CCCCCCCCCCCCCCCC(=O)N[C@@H](CCCCN)C(=O)N[C@@H](CCCCN)C(=O)N[C@@H](CCCNC(=N)N)C(=O)N[C@@H](CCCCN)C(N)=O` [L5, C16-KKRK-NH2] (Palmitoyl-KKRK-NH2): in assay [1], the “MBEC S. aureus” value is 32 * μg/mL.

As to `CCCCCCCCCCCCCCCC(=O)N[C@@H](CCCCN)C(=O)N[C@@H](CCCCN)C(=O)N[C@@H](CCCCN)C(=O)N[C@@H](CCCNC(=N)N)C(N)=O` [L6, C16-KKKR-NH2] (Palmitoyl-KKKR-NH2), the “MBEC S. aureus” value in assay [1] is given as 32 * μg/mL.

`CCCCCCCCCCCCCCCC(=O)N[C@@H](CCCNC(=N)N)C(=O)N[C@@H](CCCNC(=N)N)C(=O)N[C@@H](CCCCN)C(=O)N[C@@H](CCCCN)C(N)=O` [L7, C16-RRKK-NH2] (Palmitoyl-RRKK-NH2): the “MBEC S. aureus” value in assay [3] (ATCC 25923, 24 h) came to 128 µg/mL. Moreover, the “MIC S. aureus” value in assay [4] (ATCC 25923, 18 h) turned out to be 4 µg/mL (≈ 4.85 µM).
